Measurements: patent EP0560235B1, “Condensed heterocyclic ketone derivatives, their production and use” (priority 1992, dated 1993)

Legend:
cholinesterase = biological target: T1, cholinesterase (Rattus norvegicus, UniProt P37136); assay: Cholinesterase inhibitory activity assayed with (acetyl-[3H])-acetylcholine, S1 fraction of cerebral cortex homogenate; type: biochemical; details: S1 fraction of male Wistar rat cerebral cortex homogenate; (acetyl-[3H])-acetylcholine substrate; 30 minutes incubation; read-out: Acetylcholinesterase inhibitory activity I C50
T1 construct: using the S1 fraction of a homogenate of male Wistar rat cerebral cortex as the cholinesterase source; from tissue; host or cells: male Wistar rat cerebral cortex, S1 fraction of homogenate
Method: The cholinesterase inhibitory activity of the compound of this invention was assayed with (acetyl-[^3H])-acetylcholine. More specifically, using the S1 fraction of a homogenate of male Wistar rat cerebral cortex as the cholinesterase source, (acetyl[^3H])-acetylcholine as the substrate and the compound of this invention as the test sample were added. The mixture was incubated for 30 minutes, then the reaction was terminated, to which was added a toluene-based scintillant, then the mixture was shaken. The reaction product [^3H]-acetic acid was transferred to the toluene layer, which was subjected to determination of cholinesterase activity by counting with a liquid scintillation counter.

serotonin (5-HT) uptake = biological target: T2, serotonin (5-HT) uptake (Rattus norvegicus, UniProt P31652); assay: Monoamine uptake into crude synaptosomal preparations (P2) of cerebral cortex and hippocampus, [3H]-5-HT; type: biochemical, Rats
T2 construct: Crude synaptosomal preparations (P2) were isolated after differential centrifugation; from tissue; host or cells: rat cerebral cortex and hippocampus, crude synaptosomal preparation (P2)
Method: Effects of the compound of this invention on monoamine uptake were investigated using [^3H]-norepinephirine(NE) and [^3H]-serotonin (5-HT). Rats were sacrificed by decapitation. The cerebral cortex and hippocampus were removed and homogenized in 10-15 volumes (W/V) of an ice-cold medium containing 0.32 M sucrose. Crude synaptosomal preparations (P2) were isolated after differential centrifugation at 1000 x g for 10 min and 20,000 x g for 30 min at 4°C. […] Synaptosomal membrane suspension (900 µl) was preincubated with the test compound dissolved in DMSO solution at 37°C for 5 min. […] Five minutes later, the reaction was stopped by the addition of 4 ml of ice-cold KRB and the reaction mixture was filtered through Whatman GF/B. Filters were washed twice with 4 ml of KRB and the radioactivity bound was counted with liquid scintillant. […] All compounds were tested at 10^-8, 10^-7, 10^-6 and 10^-5M.

T2 sequence (P31652 whole entry): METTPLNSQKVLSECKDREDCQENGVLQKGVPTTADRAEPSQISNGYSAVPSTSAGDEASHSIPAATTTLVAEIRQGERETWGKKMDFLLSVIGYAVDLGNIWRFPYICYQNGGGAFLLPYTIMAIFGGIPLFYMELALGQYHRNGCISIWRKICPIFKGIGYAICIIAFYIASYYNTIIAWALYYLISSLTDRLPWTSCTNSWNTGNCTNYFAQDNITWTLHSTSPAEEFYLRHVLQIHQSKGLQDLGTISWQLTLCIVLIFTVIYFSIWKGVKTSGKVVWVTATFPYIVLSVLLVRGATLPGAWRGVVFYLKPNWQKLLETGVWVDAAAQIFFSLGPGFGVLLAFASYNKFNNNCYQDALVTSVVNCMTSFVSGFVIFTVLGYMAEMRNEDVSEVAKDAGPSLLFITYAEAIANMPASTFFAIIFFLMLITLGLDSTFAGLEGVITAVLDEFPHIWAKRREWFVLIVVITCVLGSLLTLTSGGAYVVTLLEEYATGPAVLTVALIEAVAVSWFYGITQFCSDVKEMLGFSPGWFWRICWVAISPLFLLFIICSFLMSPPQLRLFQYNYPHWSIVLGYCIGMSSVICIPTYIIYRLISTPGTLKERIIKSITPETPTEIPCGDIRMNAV
T1 sequence (P37136 32-614): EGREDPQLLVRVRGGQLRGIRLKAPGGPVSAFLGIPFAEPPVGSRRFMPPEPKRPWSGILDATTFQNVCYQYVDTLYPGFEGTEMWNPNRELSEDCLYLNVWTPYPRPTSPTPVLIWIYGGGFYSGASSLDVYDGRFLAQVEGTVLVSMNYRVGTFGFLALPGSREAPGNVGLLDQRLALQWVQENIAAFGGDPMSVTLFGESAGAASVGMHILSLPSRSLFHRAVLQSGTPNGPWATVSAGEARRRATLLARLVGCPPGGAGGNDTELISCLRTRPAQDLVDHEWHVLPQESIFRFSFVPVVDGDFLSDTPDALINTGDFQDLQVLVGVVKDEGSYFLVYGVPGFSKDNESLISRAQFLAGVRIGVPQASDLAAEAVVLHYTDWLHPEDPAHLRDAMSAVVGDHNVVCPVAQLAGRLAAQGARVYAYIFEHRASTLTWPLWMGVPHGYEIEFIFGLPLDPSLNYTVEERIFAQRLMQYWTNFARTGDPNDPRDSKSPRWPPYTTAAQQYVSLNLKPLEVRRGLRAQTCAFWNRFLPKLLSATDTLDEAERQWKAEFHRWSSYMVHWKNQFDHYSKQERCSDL

Row | SMILES | IC50 (cholinesterase) [nM] | IC50 (serotonin (5-HT) uptake) [nM]
1 | O=C(CCN1CCN(Cc2ccccc2)CC1)c1ccc2c(c1)CNCCC2 [13-3] | 78.9 | –
2 | O=C(CCN1CCN(Cc2ccccc2)CC1)c1ccc2c(c1)CCN2Cc1ccccc1 [14-1] | – | 416
3 | O=C(CCN1CCN(Cc2ccccc2)CC1)c1ccc2c(c1)CN(Cc1ccccc1)CCC2 [14-2] | 538 | –
4 | O=C(CCN1CCN(Cc2ccccc2)CC1)c1ccc2c(c1)CCN(Cc1cccc(Cl)c1)CC2 [14-4] | 147 | –
5 | CCN1CCc2ccc(C(=O)CCN3CCN(Cc4ccccc4)CC3)cc2CC1 [14-5] | 18.8 | –
6 | O=C(CCN1CCN(Cc2ccccc2Cl)CC1)c1ccc2c(c1)CCN(Cc1ccccc1)CC2 [14-6] | 113 | 34.5
7 | O=C(CCN1CCN(Cc2cccc(Cl)c2)CC1)c1ccc2c(c1)CCN(Cc1ccccc1)CC2 [14-7] | – | 42.1
8 | O=C(CCN1CCN(Cc2ccccc2)CC1)c1ccc2c(c1)CCN(Cc1ccc(Cl)cc1)CC2 [14-10] | 167 | –
9 | Cc1ccccc1CN1CCc2ccc(C(=O)CCN3CCN(Cc4ccccc4)CC3)cc2CC1 [14-14] | 63.6 | –
10 | N#Cc1ccc(CN2CCc3ccc(C(=O)CCN4CCN(Cc5ccccc5)CC4)cc3CC2)cc1 [14-19] | 33.9 | –
11 | O=C(CCN1CCN(Cc2ccccc2)CC1)c1ccc2c(c1)CCN(Cc1cccc(F)c1)CC2 [14-20] | 47.8 | –
12 | COc1ccccc1CN1CCc2ccc(C(=O)CCN3CCN(Cc4ccccc4)CC3)cc2CC1 [14-21] | 22.6 | –
13 | COc1ccc(CN2CCc3ccc(C(=O)CCN4CCN(Cc5ccccc5)CC4)cc3CC2)cc1OC [14-22] | 21.5 | –
14 | Cc1ccc(CN2CCc3ccc(C(=O)CCN4CCN(Cc5ccccc5)CC4)cc3CC2)cc1 [14-23] | 66.1 | 58.3
15 | Cc1cccc(CN2CCc3ccc(C(=O)CCN4CCN(Cc5ccccc5)CC4)cc3CC2)c1 [14-25] | 69.6 | –
16 | COc1cccc(CN2CCc3ccc(C(=O)CCN4CCN(Cc5ccccc5)CC4)cc3CC2)c1 [14-27] | 133 | –
17 | COc1ccc(CN2CCc3ccc(C(=O)CCN4CCN(Cc5ccccc5)CC4)cc3CC2)cc1 [14-29] | 25.7 | 54.4
18 | O=C(CCN1CCN(Cc2ccccc2)CC1)c1ccc2c(c1)CCN(CCc1ccccc1)CC2 [14-31] | 33 | 30.5
19 | CC(C)CN1CCc2ccc(C(=O)CCN3CCN(Cc4ccccc4)CC3)cc2CC1 [14-33] | 34.1 | 55.9
20 | COc1ccc(CCN2CCc3ccc(C(=O)CCN4CCN(Cc5ccccc5)CC4)cc3CC2)cc1OC [14-36] | 16.8 | 13.3
21 | O=C(CCN1CCN(Cc2ccccc2)CC1)c1ccc2c(c1)CCN(C(=O)c1ccccc1)CC2 [17-3] | 82.5 | –
22 | CC(=O)N1CCc2cc(C(=O)CCN3CCN(Cc4ccccc4)CC3)ccc21 [compound 16] | 25.1 | –
23 | CN1CCc2ccc(C(=O)CCN3CCN(Cc4ccccc4)CC3)cc2CC1 [compound 18] | 33.8 | –
